Where a chain is given by its changes, count along the chain named.
Tests used:
[1] = biological target: T1, TTD-PHD RR295/296AA mutant vs. H3K9me3 peptide (Homo sapiens, UniProt Q96T88, R295A/R296A); test: TR-FRET assay: TTD-PHD RR295/296AA mutant binding to H3K9me3 peptide; format: biochemical; details: 2.5 mM 2,4-lutidine
T1 construct: made in house; host or cells: E. coli (host printed for TTD-PHD in general: Rosetta (DE3))
T1 sequence (Q96T88 123-366 R295A/R296A): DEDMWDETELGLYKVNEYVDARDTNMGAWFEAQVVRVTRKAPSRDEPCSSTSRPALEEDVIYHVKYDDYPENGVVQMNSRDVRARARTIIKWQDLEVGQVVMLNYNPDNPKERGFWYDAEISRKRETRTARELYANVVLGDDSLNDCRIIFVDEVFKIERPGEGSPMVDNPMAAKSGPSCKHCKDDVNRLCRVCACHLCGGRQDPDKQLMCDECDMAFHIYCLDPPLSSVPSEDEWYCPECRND
Experimental: The fragment screen was carried out on low volume 384-well white plates (Corning 4512) and the assay was performed at room temperature. […] After 1 h of incubation, the fluorescent signals at 665 nm and 620 nm of each plate were measured by the Tecan Infinite M1000 plate reader (excitation 340 nm, 60 μs lag time, and 500 μs integration time) and the TR-FRET signal was calculated by the ratio of 665 nm/620 nm fluorescent signal. For the fragment screen, on seven of the library plates there were 32-wells of DMSO control, while there were 8-wells of DMSO control in the last plate. […] The only difference was that the final concentration of […] assay, while the final concentration of His6-UHRF1-FL was 200 nM and biotin-H3K9me3 peptide was 100 nM for the His6-UHRF1-FL TR-FRET assay. The buffer pH was 7.5 for the His6-TTD-PHD and His6-UHRF1-FL assays.

[2] = biological target: T2, His6-TTD-PHD (Homo sapiens, UniProt Q96T88); test: Intrinsic tryptophan fluorescence of His6-TTD-PHD; format: binding; details: 3.2 µM protein
T2 construct: made in house; host or cells: Rosetta (DE3) E. coli, pMCSG7
T2 sequence (Q96T88 123-366): T1 sequence (Q96T88 123-366 R295A/R296A) with A173R, A174R
Experimental: The untagged TTD was diluted to 30 µM by buffer (50 mM sodium phosphate, pH 7.5, 150 mM NaCl) with or without 60 µM of H3K9me3 peptide (1–20) (Anaspec). 10 µL of diluted TTD was added into 384-well flat bottom black plate (Greiner, Cat# 781086). […] The final concentration of TTD was 15 µM and the H3K9me3 peptide (if included) was 30 µM. The experiment was performed at room temperature. […] After compound addition, the intrinsic tryptophan fluorescence was analyzed by the Tecan Infinite M1000 plate reader (excitation 280 nm, emission 334 nm). […] Tryptophan fluorescence monitors 2 , 4 - lutidine binding to His 6 - TTD, His 6 - TTD - PHD, and C - FLAG - UHRF 1 - FL . 2 , 4 - Lutidine dose - dependently quenched the tryptophan fluorescence of TTD (purple circle), while only started to show quenching effect against His 6 - TTD - PHD at mM concentration (blue diamond) . 2 , 4 - Lutidine had no effect on the fluorescence of C - FLAG - UHRF 1 - FL and the control USP 7 - UBL 1 / 2 protein . n= 3 for each data point . (Note : the standard deviation error bars are included, but the error values are often extremely small in this assay) . […]

Cc1ccnc(C)c1 [2,4-lutidine]
inhibition of binding to H3K9me3 peptide [1]: 57.6%
quenching of His6-TTD-PHD tryptophan fluorescence (in words) [2]: only at close to mM concentrations

Source: article PMC7806715, “Discovery of small molecules targeting the tandem tudor domain of the epigenetic factor UHRF1 using fragment-based ligand discovery” (Scientific Reports, 2021)
